# According to ChEMBL document CHEMBL6121035, “An Unexpected Activity of a Minor Cannabinoid: Cannabicyclol (CBL) Is a Potent Positive Allosteric Modulator of Serotonin 5-HT1A Receptor” (J Nat Prod, 2025):
# pEC50: −log10 of the molar value. Active and inactive are the calls of the source. The calls are words filed in the database; no cut-off is given here.
# Assays:
# [1] = target: T1, 5-hydroxytryptamine receptor 1A (Homo sapiens) (UniProt P08908); assay: Positive allosteric modulation of N-terminal FLAG-tagged Rluc8-fused human 5-HT-1A expressed in HEK293T cells by BRET assay relative to control; format: cell-based
# T1 sequence (whole entry): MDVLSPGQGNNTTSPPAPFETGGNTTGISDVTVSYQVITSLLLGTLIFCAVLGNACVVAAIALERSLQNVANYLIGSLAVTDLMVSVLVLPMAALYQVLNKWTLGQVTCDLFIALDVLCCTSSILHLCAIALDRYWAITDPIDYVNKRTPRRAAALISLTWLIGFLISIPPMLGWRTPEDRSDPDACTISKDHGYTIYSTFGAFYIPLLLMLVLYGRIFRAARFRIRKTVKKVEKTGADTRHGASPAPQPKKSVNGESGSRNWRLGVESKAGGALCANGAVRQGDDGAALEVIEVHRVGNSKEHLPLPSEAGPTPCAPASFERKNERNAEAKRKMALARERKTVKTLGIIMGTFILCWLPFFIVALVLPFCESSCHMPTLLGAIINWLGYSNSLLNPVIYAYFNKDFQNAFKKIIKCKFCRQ
# [2] = target: Spike glycoprotein (Severe acute respiratory syndrome coronavirus 2, UniProt P0DTC2); assay: Inhibition of SARS-COV-2 spike protein
# [3] = Stability of compound in MCT oil at 40 degreeC measured upto 2 months by HPLC-DAD analysis; format: physicochemical; settings: 1460 h
# [4] = Stability of compound at 25 degreeC measured upto 2 months by HPLC-DAD analysis; format: physicochemical; settings: 1460 h
# [5] = target: Cannabinoid receptor 1 (Homo sapiens) (UniProt P21554); assay: Displacement of [3H]-CP55940 from cannabinoid CB1 receptor (unknown origin) at 1 to 10 uM incubated for 90 mins by Radioligand binding assay; settings: dose 1-10 µM
# Chain of Cannabinoid receptor 1 (Homo sapiens) (P21554 whole entry): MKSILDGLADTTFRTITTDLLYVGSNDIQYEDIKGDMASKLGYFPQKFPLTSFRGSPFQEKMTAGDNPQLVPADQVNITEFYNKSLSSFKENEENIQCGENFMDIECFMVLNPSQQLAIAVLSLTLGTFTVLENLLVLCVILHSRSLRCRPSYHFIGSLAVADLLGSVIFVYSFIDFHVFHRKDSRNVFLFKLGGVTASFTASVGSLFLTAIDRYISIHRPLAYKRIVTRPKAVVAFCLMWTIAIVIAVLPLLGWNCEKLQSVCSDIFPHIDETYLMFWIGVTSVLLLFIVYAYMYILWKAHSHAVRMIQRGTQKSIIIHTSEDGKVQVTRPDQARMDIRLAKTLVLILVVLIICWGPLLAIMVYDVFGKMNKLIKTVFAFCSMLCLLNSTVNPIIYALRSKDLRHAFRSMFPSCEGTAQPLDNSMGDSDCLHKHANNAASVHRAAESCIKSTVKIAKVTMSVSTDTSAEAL
# [6] = target: Cannabinoid receptor 2 (Homo sapiens) (UniProt P34972); assay: Displacement of [3H]-CP55940 from cannabinoid CB2 receptor (unknown origin) at 1 uM incubated for 90 mins by Radioligand binding assay
# Chain of Cannabinoid receptor 2 (Homo sapiens) (P34972 whole entry): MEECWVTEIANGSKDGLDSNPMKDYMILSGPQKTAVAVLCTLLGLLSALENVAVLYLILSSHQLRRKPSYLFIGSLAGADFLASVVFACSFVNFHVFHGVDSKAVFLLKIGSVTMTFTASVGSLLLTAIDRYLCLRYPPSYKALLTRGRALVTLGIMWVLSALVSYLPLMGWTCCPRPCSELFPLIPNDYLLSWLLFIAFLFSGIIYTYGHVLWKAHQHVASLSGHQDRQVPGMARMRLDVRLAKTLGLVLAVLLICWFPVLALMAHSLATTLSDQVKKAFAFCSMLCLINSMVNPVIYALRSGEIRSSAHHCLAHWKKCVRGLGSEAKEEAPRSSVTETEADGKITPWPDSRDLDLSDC
# [7] = target: T1, 5-hydroxytryptamine receptor 1A (Homo sapiens); assay: Displacement of [3H]-8-Hydroxy-DPAT from 5-HT-1A receptor (unknown origin) at 1 uM incubated for 90 mins by Radioligand binding assay relative to control
# [8] = target: T1, 5-hydroxytryptamine receptor 1A (Homo sapiens); assay: Agonist activity at PK-tagged human 5-HT-1A receptor expressed in CHO-K1 cells at > 0.5 uM incubated for 90 mins by measuring beta-arrestin recruitment by PathHunter assay; format: functional, cell-based; settings: filed as agonist
# [9] = target: T1, 5-hydroxytryptamine receptor 1A (Homo sapiens); assay: Agonist activity at PK-tagged human 5-HT-1A receptor expressed in CHO-K1 cells at 12 uM incubated for 90 mins by measuring beta-arrestin recruitment by PathHunter assay relative to control; format: functional, cell-based
# [10] = target: T1, 5-hydroxytryptamine receptor 1A (Homo sapiens); assay: (§1) Positive allosteric modulation of PK-tagged human 5-HT-1A receptor expressed in CHO-K1 cells assessed as receptor activation at 50 nM in presence of serotonin at 40 nM preincubated with compound for 30 mins followed by serotonin addition and measured after 90 mins by measuring beta arrestin recruitment by chemiluminescence based envision reader analysis; format: functional, cell-based; settings: filed as positive allosteric modulator, time 120.0 min
# [11] = target: T1, 5-hydroxytryptamine receptor 1A (Homo sapiens); assay: as §1, with “activation” for “activation at 50 nM”, “serotonin” for “serotonin at 40 nM”; format: functional, cell-based; settings: filed as positive allosteric modulator, dose 0.6-12000 nM
# [12] = target: T1, 5-hydroxytryptamine receptor 1A (Homo sapiens); assay: as §1, with “4 uM” for “50 nM”, “serotonin” for “serotonin at 40 nM”, “analysis relative to control” for “analysis”; format: functional, cell-based; settings: filed as positive allosteric modulator
# [13] = target: T1, 5-hydroxytryptamine receptor 1A (Homo sapiens); assay: as §1, with “12 uM” for “50 nM”, “serotonin” for “serotonin at 40 nM”; format: functional, cell-based
# [14] = target: T1, 5-hydroxytryptamine receptor 1A (Homo sapiens); assay: as §1, with “1 uM” for “50 nM”, “175” for “40”, “analysis relative to control” for “analysis”; format: functional, cell-based; settings: filed as positive allosteric modulator
# [15] = target: T1, 5-hydroxytryptamine receptor 1A (Homo sapiens); assay: as §1, with “> 10 uM” for “50 nM”, “175” for “40”; format: functional, cell-based
SMILES,Activity [1],pEC50 [2],Stability [3],Stability [4],Activity [5],Activity [6],Activity [7],Activity [8],Activity [9],Activity [10],Activity [11],Activity [12],Activity [13],Activity [14],Activity [15]
CCCCCn1cc(C(=O)c2cccc3ccccc23)c2ccccc21,12%,–,–,–,–,–,–,–,–,–,–,–,–,–,–
O=C(c1cccc2ccccc12)c1cn(CCCCCF)c2ccccc12,21%,–,–,–,–,–,–,–,–,–,–,–,–,–,–
CCCCCc1cc(O)c2c(c1)OC1(C)CCC3C1C2C3(C)C (racemic) [CANNABICYCLOL],–,4.97,Stable,Stable,inactive,inactive,20%,Active; Minimal Agonist Activity Observed,15%,Active,Dose-dependent-effect,80%,inactive,100%,inactive
